Test results taken from article PMC8583417, “Evaluation of the Antimicrobial Efficacy of N-Acetyl-L-Cysteine, Rhamnolipids, and Usnic Acid—Novel Approaches to Fight Food-Borne Pathogens” (International Journal of Molecular Sciences, 2021).

Legend:
E. coli 683/17 = assay: CLSM analysis, biofilm prevention; assay type: cell-based, Escherichia coli; conditions: 24 h exposure; for Thickness (µm) subCBM80: substance at subinhibitory concentration, mean ± SD
Protocol: (§1) Biofilm prevention and removal analyses were performed using previously determined minimum inhibitory and subinhibitory concentrations for metabolic activity (MICBM80, subCBM80; MICMPB80, subCMPB80) of NAC, RLs, and UA specific for each tested strain. Selected concentrations were used to evaluate the inhibition of biofilm formation (biofilm prevention) and the reduction in previously formed biofilms (biofilm removal) for the same set of microorganisms, with the exception of S. Infantis, which was excluded from the analysis due to its inability to form biofilm in the selected microtiter plate. Biofilm prevention and removal were observed using CLSM with specific staining to distinguish between live and membrane-compromised cells. Images were analyzed to evaluate (i). the total volume of the biomass, (ii). ratios of live and membrane-compromised cells, and (iii). to calculate biofilm volume reduction for individual organisms after the respective treatment types. The total biofilm volume was normalized by the area of the well and expressed as an average biofilm thickness. Complete data are provided in Supplementary Materials (Tables S1–S8).
(§2) For both inhibition and reduction of biofilms, overnight cultures from BHI were diluted in TSB + 1% Glc to reach an absorbance of 0.08 to 0.1 at 625 nm. The inoculum (150 µL) was transferred into wells of the 96-well flat-bottomed Ibidiμ-Plate (Ibidi, Gräfelfing, Germany) and mixed with 150 µL of each of the three tested substances in technical quadruplicates, followed by incubation at 37 °C for 24 h. Simultaneously, the prepared bacterial suspensions were inoculated to an additional microtiter plate (200 µL) and allowed to form biofilm overnight (18 h at 37 °C). After the incubation, the content of the well was drained off, and 200 µL of each of the three tested substances was added to the plate, which was then incubated for an additional 20 h. The used concentrations of the substances represented the subinhibitory and minimum inhibitory concentrations for metabolic activity (subCBM80, MICBM80; subCMPB80, MICMPB80). Both setups contained a positive control of the bacterial growth (inoculum mixed with sterile TSB + 1% Glc medium) and a control monitoring microbial contamination (sterile medium). Non-treated wells were used as a positive control for comparison between non-treated and treated biofilm mass.
(§3) Prior to the imaging, the wells were stained with the LIVE/DEAD® BacLight™ Bacterial Viability Kit (Thermo Fisher Scientific, MA, USA) following the manufacturer’s guidelines and Drago et al.. Briefly, equal volumes of SYTO® 9 and propidium iodide were combined with the sterile distilled water to reach a final concentration of […]. The biofilm mass was stained using 300 µL of the staining solution per well followed by incubation at 37 °C in the dark for 15 min. Stained wells were washed once with sterile distilled water, which was then added to each well (300 µL). Images were acquired with an inverted Leica SP5 CLSM using a 1.25× dry objective (WD 3.7 mm, Z-resolution 27 µm, up to 24 Z-stacks per well) to visualize an entire well. Samples were kept at the cultivation conditions (37 °C, 5% CO2, 90% humidity) with an OkoLabs stage top environmental chamber (Oko Labs, PA, USA). Fluorophore excitation lasers and emission bandwidths were as follows: SYTO® 9 (ex/em 485/498 nm) 488 nm excitation, 495 to 550 nm emission collection; propidium iodide (ex/em 535/617 nm) 561 nm excitation, 595 to 650 nm emission collection. The laser beam scanned the visual field at a frequency of 600 Hz. The wells were captured in snapshots of 1024 × 1024 pixels representing the area of 153.76 mm^2.
(§4) All collected images were statistically evaluated to quantify biovolume utilizing the surface estimation procedure described in Parker et al.. […]

E. coli 693/17 = assay: CLSM analysis, biofilm prevention; assay type: cell-based, Escherichia coli; conditions: 24 h exposure; for Thickness (µm) subCBM80: substance at subinhibitory concentration, mean ± SD
Protocol: as §1, §2, §3, §4

[1] = system: S. Enteritidis ATCC 13076; assay: MIC for biofilm metabolic activity (MTT reduction assay); assay type: cell-based, Salmonella enterica Enteritidis; conditions: for MICBM80: ≥80% inhibition, 24 h
Protocol: (§5) Ten concentrations of NAC, RLs, and UA were tested to determine the minimum inhibitory concentration for planktonic growth, and subsequently, the six highest concentrations were applied on preformed biofilms to evaluate the biofilm eradication ability of the compounds. MIC was defined as the lowest substance concentration able to inhibit at least 80% of microbial growth (MICPC80 for planktonic cells, MICBC80 for further growth of biofilm cells), inhibit 80% of metabolic activity (MICBM80 for biofilm metabolic activity, MICMPB80 for metabolic activity of preformed biofilm), prevent biofilm formation by at least 80% (MICBF80 for biofilm formation), or reduce a preformed biofilm by at least 80% (MICBR80 for biofilm reduction). The results of MICs are summarized in Table 1 (planktonic cells) and Table 2 (biofilm-associated cells).
(§6) The determination of MICs was performed according to Chlumsky et al.. […] To evaluate planktonic cells growth (MICPC80) and further growth of biofilm cells (MICBC80), the optical density of the content of the microtiter plates was measured spectrophotometrically at 625 nm before and after 24 h (for biofilm formation) of cultivation or before and after additional 20 h incubation with the tested compound (for preformed biofilm). […] To evaluate the inhibition of biofilm formation (MICBF80) and reduction in preformed biofilms (MICBR80), biomass was quantified using crystal violet staining, and its metabolic activity (MICBM80 and MICMPB80) was estimated by using the MTT (thiazyl tetrazolium bromide, Sigma-Aldrich, USA) reduction assay, both measured spectrophotometrically at 595 nm.
(§7) All inhibitions were calculated using the formula of Chlumsky et al. below (Equation (1)):(1) A625(595)nm inhibition (%)=A625(595)nm (control) – A625(595)nm(natural substance)/A625(595)nm (control)× 100 where A625(595)nm (control) is the absorbance of bacterial suspension/biofilm itself, and A625(595)nm(natural substance) is the absorbance of the bacterial suspension/biofilm with the added natural substance (NAC, RLs, and UA). […]

S. Infantis S13 = assay: MIC for metabolic activity of preformed biofilm (MTT reduction assay); assay type: cell-based, Salmonella enterica Infantis; conditions: for MICMPB80: ≥80% inhibition, 20 h with substance
Protocol: as §5
(§8) The determination of MICs was performed according to Chlumsky et al.. Briefly, 96-well flat-bottomed microtiter plates were inoculated with 75 µL (for biofilm formation) or 100 µL (for preformed biofilm) of bacterial suspension (A625nm 0.08 to 0.1) in technical triplicates and were then carefully mixed with the dilution series of the test substances (24 h cultivation at 25 °C for S. Infantis, 37 °C for other strains) or were directly cultivated to preform biofilms (18 h). For a positive control of bacterial growth, the inoculum was mixed with a pure sterile medium. Furthermore, the sterile medium was included in the plate as a marker of potential microbial contamination. To evaluate planktonic cells growth (MICPC80) and further growth of biofilm cells (MICBC80), the optical density of the content of the microtiter plates was measured spectrophotometrically at 625 nm before and after 24 h (for biofilm formation) of cultivation or before and after additional 20 h incubation with the tested compound (for preformed biofilm). The difference of A625nm was considered as a measure of the ability of cells to grow in the presence of the tested substances. To evaluate the inhibition of biofilm formation (MICBF80) and reduction in preformed biofilms (MICBR80), biomass was quantified using crystal violet staining, and its metabolic activity (MICBM80 and MICMPB80) was estimated by using the MTT (thiazyl tetrazolium bromide, Sigma-Aldrich, USA) reduction assay, both measured spectrophotometrically at 595 nm.
(§9) All inhibitions were calculated using the formula of Chlumsky et al. below (Equation (1)):(1) A625(595)nm inhibition (%)=A625(595)nm (control) – A625(595)nm(natural substance)/A625(595)nm (control)× 100 where A625(595)nm (control) is the absorbance of bacterial suspension/biofilm itself, and A625(595)nm(natural substance) is the absorbance of the bacterial suspension/biofilm with the added natural substance (NAC, RLs, and UA).
(§10) When the minimum inhibitory concentration could not be determined, the MIC was established as >the highest tested concentration for NAC, RLs, and UA.

S. Infantis S59 = assay: as above; assay type: cell-based, Salmonella enterica Infantis; conditions: for MICMPB80: ≥80% inhibition, 20 h with substance
Protocol: as §5, §8, §9, §10

[2] = system: S. Enteritidis ATCC 13076; assay: as above; assay type: cell-based, Salmonella enterica Enteritidis; conditions: for MICMPB80: ≥80% inhibition, 20 h with substance
Protocol: as §5, §6, §7

[3] = substance at its MICBM80, mean ± SD

SMILES | Thickness (µm) subCBM80 (E. coli 683/17) [µm] | Thickness (µm) subCBM80 (E. coli 693/17) [µm] | maximal achieved inhibition (MICBM80 not reached) ([1]; within tested concentrations) [%] | MICBM80 [1] | maximal achieved inhibition (MICMPB80 not reached) (S. Infantis S13; within tested concentrations) [%] | MICMPB80 (S. Infantis S13) | maximal achieved inhibition (MICMPB80 not reached) (S. Infantis S59; within tested concentrations) [%] | MICMPB80 (S. Infantis S59) | maximal achieved inhibition (MICMPB80 not reached) ([2]; within tested concentrations) [%] | MICMPB80 [2] | Thickness (µm) MICBM80 (E. coli 683/17; [3]) [µm] | Thickness (µm) MICBM80 (E. coli 693/17; [3]) [µm]
CC(=O)c1c(O)c(C)c(O)c2c1OC1=CC(=O)C(C(C)=O)C(=O)C12C (single isomer, unassigned; (+)) [UA, (+)-usnic acid] | 269 ± 28.1 | 256 ± 12.6 | 45 | > 31.3 µg/mL | 17 | > 31.3 µg/mL | 26 | > 31.3 µg/mL | 53 | > 31.3 µg/mL | – | –
CC(=O)N[C@@H](CS)C(=O)O [NAC, N-Acetyl-L-cysteine] | 229 ± 9.9 | 181 ± 21.9 | – | 12,500 µg/mL | – | 12,500 µg/mL | – | 12,500 µg/mL | – | 12,500 µg/mL | 271 ± 50.7 | 273 ± 40.8
